Measurements as given in US20250214991A1 (Oncopia Therapeutics, Inc. d/b/a/ SK Life Science Labs, priority 2022, published 2025).

Key:
CRBN/DDB1 = CRBN/DDB1 (Homo sapiens (Human), UniProt Q96SW2); test: IC50 measurements for binding to CRBN/DDB1 (HTRF); conditions: His tagged CRBN+DDB, Cy5-labeled Thalidomide probe, one hour
Experimental: In vitro Assay: IC50 Measurements for binding to CRBN/DDB1 (Table E1)
The binding potency was determined using HTRF assay technology (Perkin Elmer). Compounds were serially diluted in DMSO and 0.2 μL volume was transferred to white 384-well plate. The reaction was conducted in total volume of 20 μL with addition of 2 nM His tagged CRBN+DDB−DLS7+CXU4 (Wuxi, catalogue #RP210521GA) to compounds followed by addition of 60 nM Fluorescent probe Cy5-labeled Thalidomide (Tenova Pharma, catalogue #T52461), and 0.4 nM of MAb Anti-6HIS Tb cryptate Gold (Cisbio, catalogue #61HI2TLA in the assay buffer (50 mM HEPES pH 7.5, 1 mM TCEP, 0.01% Brij-35, 50 mM NaCl, and 0.1% BSA). After one hour incubation at room temperature, the HTRF signals were read on Envision reader (Perkin Elemer). Data was analyzed using XLfit using four parameters dose response curve to determine IC50s. A: IC50<0.1 μM; B: 0.1 μM<IC50<[…]; C: 0.5 μM<IC50<1 μM; D: 1 μM<IC50<5 μM; E: 5 μM<IC50<10 μM

IKZF2 = IKZF2 (Homo sapiens (Human), UniProt Q96SW2+Q9UKS7); test: In vitro IKZF2 HiBit Assay (HEK293T Flp-in-HiBiT cells); assay type: cell-based; conditions: HEK293T Flp-in-HiBiT cells, 6 hrs incubation; for DC50: read-out: IKZF2 HiBit DC50; for Dmax: HEK-293T, read-out: IKZF2 HiBit Dmax (%)
Chain of IKZF2 (Q9UKS7 whole entry): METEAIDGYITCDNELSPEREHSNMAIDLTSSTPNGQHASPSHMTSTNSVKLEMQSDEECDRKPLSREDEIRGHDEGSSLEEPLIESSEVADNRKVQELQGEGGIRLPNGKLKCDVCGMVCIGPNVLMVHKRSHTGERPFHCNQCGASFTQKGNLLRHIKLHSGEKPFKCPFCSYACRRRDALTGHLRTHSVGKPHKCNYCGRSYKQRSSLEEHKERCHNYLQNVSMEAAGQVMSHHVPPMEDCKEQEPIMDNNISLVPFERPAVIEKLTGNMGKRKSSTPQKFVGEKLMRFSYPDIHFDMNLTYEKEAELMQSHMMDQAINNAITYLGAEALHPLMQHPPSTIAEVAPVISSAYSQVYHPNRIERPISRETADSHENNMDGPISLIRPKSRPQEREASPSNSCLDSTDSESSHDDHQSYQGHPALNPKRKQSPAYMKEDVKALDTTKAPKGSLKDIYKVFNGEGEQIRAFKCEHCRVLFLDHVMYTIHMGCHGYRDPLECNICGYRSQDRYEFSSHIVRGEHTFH
Chain of IKZF2 (Q96SW2 whole entry): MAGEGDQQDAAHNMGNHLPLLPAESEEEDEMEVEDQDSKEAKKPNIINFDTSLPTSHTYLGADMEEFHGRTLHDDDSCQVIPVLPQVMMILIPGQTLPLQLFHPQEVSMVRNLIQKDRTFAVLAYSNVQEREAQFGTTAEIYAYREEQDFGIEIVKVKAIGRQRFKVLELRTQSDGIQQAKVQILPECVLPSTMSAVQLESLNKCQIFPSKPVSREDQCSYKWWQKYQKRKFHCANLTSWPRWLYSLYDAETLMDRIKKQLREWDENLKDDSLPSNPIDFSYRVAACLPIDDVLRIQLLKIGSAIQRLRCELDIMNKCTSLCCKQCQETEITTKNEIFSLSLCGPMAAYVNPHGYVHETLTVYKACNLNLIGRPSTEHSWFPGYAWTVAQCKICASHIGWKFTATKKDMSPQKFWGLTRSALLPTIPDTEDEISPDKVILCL
Chain of IKZF2 (Q16531 2-1140 partner): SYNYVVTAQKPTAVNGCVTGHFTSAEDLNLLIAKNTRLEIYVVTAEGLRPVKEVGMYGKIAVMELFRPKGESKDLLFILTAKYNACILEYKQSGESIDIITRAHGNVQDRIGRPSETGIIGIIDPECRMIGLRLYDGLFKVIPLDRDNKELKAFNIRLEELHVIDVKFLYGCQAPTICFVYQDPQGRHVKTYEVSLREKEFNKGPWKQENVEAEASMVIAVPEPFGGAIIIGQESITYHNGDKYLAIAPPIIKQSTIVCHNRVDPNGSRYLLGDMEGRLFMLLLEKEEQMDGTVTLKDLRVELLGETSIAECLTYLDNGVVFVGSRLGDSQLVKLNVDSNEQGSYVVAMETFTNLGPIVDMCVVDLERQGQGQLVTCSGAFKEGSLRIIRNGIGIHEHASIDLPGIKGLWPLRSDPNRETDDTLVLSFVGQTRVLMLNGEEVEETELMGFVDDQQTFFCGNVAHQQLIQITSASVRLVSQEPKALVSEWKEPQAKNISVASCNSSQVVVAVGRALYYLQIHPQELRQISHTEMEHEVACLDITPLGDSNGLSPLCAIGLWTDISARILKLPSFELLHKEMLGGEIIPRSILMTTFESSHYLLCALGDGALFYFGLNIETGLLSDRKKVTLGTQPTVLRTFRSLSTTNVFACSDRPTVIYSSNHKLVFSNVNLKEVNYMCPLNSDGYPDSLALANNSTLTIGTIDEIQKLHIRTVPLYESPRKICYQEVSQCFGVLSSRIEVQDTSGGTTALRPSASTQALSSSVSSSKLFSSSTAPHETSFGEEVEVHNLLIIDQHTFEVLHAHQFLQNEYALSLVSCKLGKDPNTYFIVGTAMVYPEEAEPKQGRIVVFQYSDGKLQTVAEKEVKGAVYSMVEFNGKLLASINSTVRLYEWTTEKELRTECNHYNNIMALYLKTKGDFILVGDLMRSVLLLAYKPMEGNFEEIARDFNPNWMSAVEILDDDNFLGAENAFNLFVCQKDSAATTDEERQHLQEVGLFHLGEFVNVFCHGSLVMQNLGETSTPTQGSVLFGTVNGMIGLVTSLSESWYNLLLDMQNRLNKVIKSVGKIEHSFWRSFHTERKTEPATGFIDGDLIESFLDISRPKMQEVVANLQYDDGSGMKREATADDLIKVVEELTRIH
Procedure, shortened: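 HEK293T Flp-in cells carrying an endogenous N-terminal HiBiT tag on IKZF2 were exposed to compound for 6 h at 0.1% DMSO. The dilution series was 11 doses at 3-fold, diluted from 1 mM. Nano-Glo HiBiT lytic luminescence, normalized to DMSO, gave DC50 for 50% degradation and Dmax across the concentration range, both reported in letter bins.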

IKZF1 = IKZF1 (Homo sapiens (Human), UniProt Q13422+Q96SW2); test: In vitro IKZF1 HiBit Assay (HEK293T Flp-in-HiBiT-IKZF1 stable cell line); assay type: cell-based; conditions: HEK293T Flp-in-HiBiT-IKZF1 stable cell line, 6 hrs incubation; for DC50: read-out: IKZF1 HiBit DC50; for Dmax: HEK-293T, read-out: IKZF1 HiBit Dmax (%)
Chain of IKZF1 (Q13422 whole entry): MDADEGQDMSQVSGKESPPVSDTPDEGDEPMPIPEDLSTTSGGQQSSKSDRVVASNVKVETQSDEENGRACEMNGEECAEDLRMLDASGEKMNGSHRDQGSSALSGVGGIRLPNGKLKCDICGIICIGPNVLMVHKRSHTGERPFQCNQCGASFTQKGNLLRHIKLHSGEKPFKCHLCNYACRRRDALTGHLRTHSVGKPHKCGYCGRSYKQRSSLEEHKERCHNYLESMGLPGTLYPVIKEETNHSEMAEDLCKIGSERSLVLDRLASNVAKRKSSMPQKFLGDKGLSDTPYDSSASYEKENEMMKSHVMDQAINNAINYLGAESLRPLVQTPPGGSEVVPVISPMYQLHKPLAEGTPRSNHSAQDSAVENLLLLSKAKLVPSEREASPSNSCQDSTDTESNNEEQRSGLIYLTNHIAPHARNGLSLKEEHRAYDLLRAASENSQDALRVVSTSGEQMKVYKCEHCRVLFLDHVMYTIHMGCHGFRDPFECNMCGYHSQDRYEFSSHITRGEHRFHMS
Chain of IKZF1 (Q96SW2 whole entry): as the sequence (Q96SW2 whole entry) above
Chain of IKZF1 (Q16531 2-1140 partner): as the sequence (Q16531 2-1140 partner) above
Procedure, shortened: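 HEK293T Flp-in cells carrying N-terminal HiBiT-tagged IKZF1 were exposed to compound (0.1% DMSO) for 6 h at 3000 cells/well. HiBiT luminescence was read after lytic LgBiT detection. DC50 and Dmax were taken from DMSO-normalized dose-response curves.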

Chain of CRBN/DDB1 (Q96SW2 whole entry, species assumed): as the sequence (Q96SW2 whole entry) above
Chain of CRBN/DDB1 (Q16531 whole entry partner, species assumed): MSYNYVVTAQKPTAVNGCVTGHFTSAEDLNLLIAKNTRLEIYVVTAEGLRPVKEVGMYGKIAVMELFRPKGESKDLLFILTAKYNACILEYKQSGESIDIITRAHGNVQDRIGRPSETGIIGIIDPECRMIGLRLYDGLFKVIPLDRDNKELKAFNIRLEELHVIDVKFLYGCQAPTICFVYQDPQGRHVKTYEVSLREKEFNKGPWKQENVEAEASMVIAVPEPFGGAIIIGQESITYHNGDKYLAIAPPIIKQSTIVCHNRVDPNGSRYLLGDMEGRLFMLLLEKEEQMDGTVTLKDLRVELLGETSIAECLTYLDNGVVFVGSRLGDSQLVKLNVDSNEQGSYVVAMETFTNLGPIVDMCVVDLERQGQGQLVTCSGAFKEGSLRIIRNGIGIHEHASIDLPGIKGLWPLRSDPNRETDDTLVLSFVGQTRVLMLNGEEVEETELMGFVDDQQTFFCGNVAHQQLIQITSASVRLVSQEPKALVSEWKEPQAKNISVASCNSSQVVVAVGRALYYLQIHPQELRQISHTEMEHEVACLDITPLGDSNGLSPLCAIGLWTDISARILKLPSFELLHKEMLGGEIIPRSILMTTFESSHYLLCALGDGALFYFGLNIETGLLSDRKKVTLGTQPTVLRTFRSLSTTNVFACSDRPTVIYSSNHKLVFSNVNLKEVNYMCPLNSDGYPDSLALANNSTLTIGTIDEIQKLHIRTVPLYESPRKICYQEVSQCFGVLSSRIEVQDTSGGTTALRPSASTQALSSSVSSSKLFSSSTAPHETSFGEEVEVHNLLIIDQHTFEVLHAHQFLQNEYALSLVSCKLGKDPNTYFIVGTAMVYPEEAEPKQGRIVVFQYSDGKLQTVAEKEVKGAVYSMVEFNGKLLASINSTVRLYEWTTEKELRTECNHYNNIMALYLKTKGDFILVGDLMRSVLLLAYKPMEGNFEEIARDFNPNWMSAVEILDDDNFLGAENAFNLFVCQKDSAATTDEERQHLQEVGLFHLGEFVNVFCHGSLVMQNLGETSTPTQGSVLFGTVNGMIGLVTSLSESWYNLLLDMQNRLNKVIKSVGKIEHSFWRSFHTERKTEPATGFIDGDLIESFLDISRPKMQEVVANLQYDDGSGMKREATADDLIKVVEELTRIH

| SMILES | IC50 (CRBN/DDB1) [nM] | DC50 (IKZF2) [nM] | Dmax (IKZF2) [%] | DC50 (IKZF1) [nM] | Dmax (IKZF1) [%] |
| --- | --- | --- | --- | --- | --- |
| O=C1CCC(N2Cc3cc(-c4cc(CN5CCCC5)cc5cncn45)cc(F)c3C2=O)C(=O)N1 (centres unmarked) [Example 28, 3-(7-fluoro-1-oxo-5-(7-(pyrrolidin-1-ylmethyl)imidazo[1,5-a]pyridin-5-yl)isoindolin-2-yl) piperidine-2,6-dione] | 500 to 1000 |  |  |  |  |
| O=C1CCC(N2Cc3cc(-c4cc(CN5CCCC5)cc5cncn45)c(F)cc3C2=O)C(=O)N1 (centres unmarked) [Example 29, 3-(6-fluoro-1-oxo-5-(7-(pyrrolidin-1-ylmethyl)imidazo[1,5-a]pyridin-5-yl)isoindolin-2-yl) piperidine-2,6-dione] | 1000 to 5000 |  |  |  |  |
| COc1cc2c(cc1-c1cc(CN3CCCC3)cc3cncn13)CN(C1CCC(=O)NC1=O)C2=O (centres unmarked) [Example 30, 3-(6-methoxy-1-oxo-5-(7-(pyrrolidin-1-ylmethyl)imidazo[1,5-a]pyridin-5-yl)isoindolin-2-yl) piperidine-2,6-dione] | 1000 to 5000 | 1000 to 10000 | < 20 | > 10000 | < 20 |
| COc1cc(-c2cc(CN3CCCC3)cc3cncn23)cc2c1C(=O)N(C1CCC(=O)NC1=O)C2 (centres unmarked) [Example 32, 3-(7-methoxy-1-oxo-5-(7-(pyrrolidin-1-ylmethyl)imidazo[1,5-a]pyridin-5-yl)isoindolin-2-yl) piperidine-2,6-dione] | 100 to 500 |  |  |  |  |
| O=C1CCC(N2Cc3cc(-c4cc(CN5CCCC5c5ccccc5)cc5nncn45)ccc3C2=O)C(=O)N1 (centres unmarked) [Example 50, 3-(1-oxo-5-(7-((2-phenylpyrrolidin-1-yl)methyl)-[1,2,4]triazolo[4,3-a]pyridin-5-yl)isoindolin-2-yl) piperidine-2,6-dione] | 1000 to 5000 |  |  |  |  |
| Cn1ccc2c(CN3CCCCC3)cc(-c3ccc4c(c3)CN(C3CCC(=O)NC3=O)C4=O)nc21 (centres unmarked) [Example 57, 3-(5-(1-methyl-4-(piperidin-1-ylmethyl)-1H-pyrrolo[2,3-b]pyridin-6-yl)-1-oxoisoindolin-2-yl) piperidine-2,6-dione] | 100 to 500 | < 1 | > 80 | > 10000 | 20 to 40 |
| Cn1ccc2c(CN3CCOCC3)cc(-c3ccc4c(c3)CN(C3CCC(=O)NC3=O)C4=O)nc21 (centres unmarked) [Example 58, 3-(5-(1-methyl-4-(morpholinomethyl)-1H-pyrrolo[2,3-b]pyridin-6-yl)-1-oxoisoindolin-2-yl) piperidine-2,6-dione] | 500 to 1000 | 1 to 10 | 60 to 80 | > 10000 | < 20 |
| O=C1CCC(N2Cc3cc(-c4cc(CN5CCCC5)c5cc[nH]c5n4)ccc3C2=O)C(=O)N1 (centres unmarked) [Example 59, 3-(1-oxo-5-(4-(pyrrolidin-1-ylmethyl)-1H-pyrrolo[2,3-b]pyridin-6-yl)isoindolin-2-yl) piperidine-2,6-dione] | 100 to 500 | 1 to 10 | > 80 | > 10000 | 20 to 40 |
| Cn1ccc2c(CN3CCC(F)(F)CC3)cc(-c3ccc4c(c3)CN(C3CCC(=O)NC3=O)C4=O)nc21 (centres unmarked) [Example 60, 3-(5-(4-((4,4-difluoropiperidin-1-yl)methyl)-1-methyl-1H-pyrrolo[2,3-b]pyridin-6-yl)-1-oxoisoindolin-2-yl) piperidine-2,6-dione] | 500 to 1000 | 1 to 10 | 60 to 80 | > 10000 | < 20 |
| Cn1ccc2c(CN3CCN(S(C)(=O)=O)CC3)cc(-c3ccc4c(c3)CN(C3CCC(=O)NC3=O)C4=O)nc21 (centres unmarked) [Example 61, 3-(5-(1-methyl-4-((4-(methylsulfonyl)piperazin-1-yl)methyl)-1H-pyrrolo[2,3-b]pyridin-6-yl)-1-oxoisoindolin-2-yl) piperidine-2,6-dione] | 500 to 1000 | 10 to 100 | 40 to 60 | > 10000 | < 20 |
| Cn1ccc2c(CN3CCSCC3)cc(-c3ccc4c(c3)CN(C3CCC(=O)NC3=O)C4=O)nc21 (centres unmarked) [Example 62, 3-(5-(1-methyl-4-(thiomorpholinomethyl)-1H-pyrrolo[2,3-b]pyridin-6-yl)-1-oxoisoindolin-2-yl) piperidine-2,6-dione] | 100 to 500 | 1 to 10 | > 80 | > 10000 | < 20 |
| Cn1ccc2c(CN3CC4COCC4C3)cc(-c3ccc4c(c3)CN(C3CCC(=O)NC3=O)C4=O)nc21 (centres unmarked) [Example 63, 3-(5-(1-methyl-4-((tetrahydro-1H-furo[3,4-c]pyrrol-5 (3H)-yl)methyl)-1H-pyrrolo[2,3-b]pyridin-6-yl)-1-oxoisoindolin-2-yl) piperidine-2,6-dione] | 100 to 500 | < 1 | > 80 | > 10000 | 20 to 40 |
| Cn1ccc2c(CN3CCC4(CC3)CC4)cc(-c3ccc4c(c3)CN(C3CCC(=O)NC3=O)C4=O)nc21 (centres unmarked) [Example 64, 3-(5-(4-((6-azaspiro[2.5]octan-6-yl)methyl)-1-methyl-1H-pyrrolo[2,3-b]pyridin-6-yl)-1-oxoisoindolin-2-yl) piperidine-2,6-dione] | 100 to 500 | < 1 | > 80 | > 10000 | 20 to 40 |
| Cn1ccc2c(CN3CCc4ccccc4C3)cc(-c3ccc4c(c3)CN(C3CCC(=O)NC3=O)C4=O)nc21 (centres unmarked) [Example 65, 3-(5-(4-((3,4-dihydroisoquinolin-2 (1H)-yl)methyl)-1-methyl-1H-pyrrolo[2,3-b]pyridin-6-yl)-1-oxoisoindolin-2-yl) piperidine-2,6-dione] | 100 to 500 | 1 to 10 | > 80 | > 10000 | 20 to 40 |
| Cn1ccc2c(CN3CC4CC4C3)cc(-c3ccc4c(c3)CN(C3CCC(=O)NC3=O)C4=O)nc21 (centres unmarked) [Example 66, 3-(5-(4-((3-azabicyclo[3.1.0]hexan-3-yl)methyl)-1-methyl-1H-pyrrolo[2,3-b]pyridin-6-yl)-1-oxoisoindolin-2-yl) piperidine-2,6-dione] | 100 to 500 | < 1 | > 80 | > 10000 | 20 to 40 |
| Cn1ccc2c(CN3Cc4ccccc4C3)cc(-c3ccc4c(c3)CN(C3CCC(=O)NC3=O)C4=O)nc21 (centres unmarked) [Example 67, 3-(5-(4-(isoindolin-2-ylmethyl)-1-methyl-1H-pyrrolo[2,3-b]pyridin-6-yl)-1-oxoisoindolin-2-yl) piperidine-2,6-dione] | 500 to 1000 | 1 to 10 | 60 to 80 | > 10000 | 20 to 40 |
| Cn1ccc2c(CN3CCS(=O)(=O)CC3)cc(-c3ccc4c(c3)CN(C3CCC(=O)NC3=O)C4=O)nc21 (centres unmarked) [Example 68, 3-(5-(4-((1,1-dioxidothiomorpholino)methyl)-1-methyl-1H-pyrrolo[2,3-b]pyridin-6-yl)-1-oxoisoindolin-2-yl) piperidine-2,6-dione] | 1000 to 5000 | 100 to 1000 | 20 to 40 | > 10000 | < 20 |
| Cn1ccc2c(CN3CCC4(CCC4)CC3)cc(-c3ccc4c(c3)CN(C3CCC(=O)NC3=O)C4=O)nc21 (centres unmarked) [Example 69, 3-(5-(4-((7-azaspiro[3.5]nonan-7-yl)methyl)-1-methyl-1H-pyrrolo[2,3-b]pyridin-6-yl)-1-oxoisoindolin-2-yl) piperidine-2,6-dione] | 100 to 500 | < 1 | > 80 | > 10000 | 20 to 40 |
| Cn1ccc2c(CN3CC4COCC(C4)C3)cc(-c3ccc4c(c3)CN(C3CCC(=O)NC3=O)C4=O)nc21 (centres unmarked) [Example 70, 3-(5-(4-((3-oxa-7-azabicyclo[3.3.1]nonan-7-yl)methyl)-1-methyl-1H-pyrrolo[2,3-b]pyridin-6-yl)-1-oxoisoindolin-2-yl) piperidine-2,6-dione] | 1000 to 5000 | 1 to 10 | > 80 | > 10000 | < 20 |
| CC(C)Nc1n[nH]c2c(CN3CCCC3)cc(-c3ccc4c(c3)CN(C35CC(C3)C(=O)NC5=O)C4=O)nc12 [Example 298, 1-(5-(3-(isopropylamino)-7-(pyrrolidin-1-ylmethyl)-1H-pyrazolo[4,3-b]pyridin-5-yl)-1-oxoisoindolin-2-yl)-3-azabicyclo[3.1.1]heptane-2,4-dione] |  | < 1 | 20 to 40 | > 10000 | < 20 |
